Laboratory results: the supplement of paper PMC10307832

Assays:
Test in all cases: relative viability (nuclei count vs DMSO), 5 days (fraction); higher = more cells survive
Irinotecan + Pemetrexed = compound: CCc1c2c(nc3ccc(OC(=O)N4CCC(N5CCCCC5)CC4)cc13)-c1cc3c(c(=O)n1C2)COC(=O)[C@]3(O)CC [Irinotecan] + Nc1nc2[nH]cc(CCc3ccc(C(=O)N[C@@H](CCC(=O)O)C(=O)O)cc3)c2c(=O)[nH]1 [Pemetrexed] (partner 0.2 µM)
Summary of the method: (§1)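 Nuclei were stained with Hoechst during a one-step fixation (final 0.05% Triton X-100, 1% formaldehyde, 1 ug/ml Hoechst) carried out 5 days after dosing, then counted on 4× images. The cells, lung cancer lines in 1536-well plates, had been dosed by pin tool the day after seeding with one drug alone or a fixed anchor-drug dose plus five library-drug doses (not always all listed) in √10 steps. Relative viability is the nuclei count in treated wells divided by that in vehicle wells, and each value is the median of duplicate plates.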

Irinotecan + OSI-027 = compound: CCc1c2c(nc3ccc(OC(=O)N4CCC(N5CCCCC5)CC4)cc13)-c1cc3c(c(=O)n1C2)COC(=O)[C@]3(O)CC [Irinotecan] + COc1cccc2cc(-c3nc([C@H]4CC[C@H](C(=O)O)CC4)n4ncnc(N)c34)[nH]c12 [OSI-027] (partner 0.5 µM)
Summary of the method: as §1

RU-SKI 43 + Dasatinib = compound: CC[C@@H](C)CNCC(=O)N1CCC2=C([C@@H]1COC3=CC=CC(=C3)C)C=CS2 [RU-SKI 43] + Cc1nc(Nc2ncc(C(=O)Nc3c(C)cccc3Cl)s2)cc(N2CCN(CCO)CC2)n1 [Dasatinib] (partner 0.075 µM)
Summary of the method: as §1

RU-SKI 43 + Alpelisib = compound: CC[C@@H](C)CNCC(=O)N1CCC2=C([C@@H]1COC3=CC=CC(=C3)C)C=CS2 [RU-SKI 43] + Cc1nc(NC(=O)N2CCC[C@H]2C(N)=O)sc1-c1ccnc(C(C)(C)C(F)(F)F)c1 [Alpelisib] (partner 2 µM)
Summary of the method: as §1

| Cell Line | relative viability (Irinotecan + Pemetrexed; first compound 0.6325 µM) | relative viability (Irinotecan + Pemetrexed; first compound 2 µM) | relative viability (Irinotecan + Pemetrexed; first compound 6.325 µM) | relative viability (Irinotecan + Pemetrexed; first compound 20 µM) | relative viability (Irinotecan + OSI-027; first compound 0.6325 µM) | relative viability (Irinotecan + OSI-027; first compound 2 µM) | relative viability (Irinotecan + OSI-027; first compound 6.325 µM) | relative viability (Irinotecan + OSI-027; first compound 20 µM) | relative viability (RU-SKI 43 + Dasatinib; first compound 0.1 µM) | relative viability (RU-SKI 43 + Dasatinib; first compound 0.3162 µM) | relative viability (RU-SKI 43 + Dasatinib; first compound 1 µM) | relative viability (RU-SKI 43 + Dasatinib; first compound 3.162 µM) | relative viability (RU-SKI 43 + Dasatinib; first compound 10 µM) | relative viability (RU-SKI 43 + Alpelisib; first compound 0.1 µM) | relative viability (RU-SKI 43 + Alpelisib; first compound 0.3162 µM) | relative viability (RU-SKI 43 + Alpelisib; first compound 1 µM) | relative viability (RU-SKI 43 + Alpelisib; first compound 3.162 µM) | relative viability (RU-SKI 43 + Alpelisib; first compound 10 µM) |
| --- | --- | --- | --- | --- | --- | --- | --- | --- | --- | --- | --- | --- | --- | --- | --- | --- | --- | --- |
| LOU-NH91 | 0.392 | 0.402 | 0.338 | 0.182 | 0.688 | 0.688 | 0.386 | 0.365 | 0.553 | 0.604 | 0.624 | 0.581 | 0.554 | 0.72 | 0.738 | 0.711 | 0.681 | 0.7 |
| NCI-H1975 | 0.268 | 0.311 | 0.252 | 0.173 | 0.558 | 0.694 | 0.439 | 0.137 | 0.357 | 0.461 | 0.441 | 0.356 | 0.401 | 0.692 | 0.717 | 0.806 | 0.66 | 0.583 |
| NCI-H650 | 0.749 | 0.838 | 0.229 | 0.201 | 0.467 | 0.587 | 0.316 | 0.277 | 0.484 | 0.45 | 0.468 | 0.398 | 0.45 | 1.14 | 0.981 | 1.12 |  | 1.07 |
| SW 1573 |  | 0.553 | 0.176 | 0.0829 | 0.213 | 0.566 | 0.231 | 0.122 | 0.558 | 0.816 | 0.497 | 0.491 | 0.311 | 0.884 | 0.937 | 0.695 | 0.793 | 0.637 |
| NCI-H441 | 0.261 | 0.178 | 0.222 | 0.241 | 0.371 | 0.448 | 0.281 | 0.327 | 0.615 | 0.656 | 0.553 | 0.582 | 0.386 | 0.87 | 0.907 | 0.573 | 0.68 | 0.946 |
| NCI-H1944 | 0.553 | 0.516 | 0.284 | 0.175 | 0.22 | 0.349 | 0.165 | 0.161 | 0.209 | 0.223 | 0.213 | 0.211 | 0.2 | 0.888 | 0.815 | 0.843 | 0.872 | 0.786 |
| NCI-H838 | 0.232 | 0.25 | 0.24 | 0.25 | 0.508 | 0.37 | 0.368 | 0.257 | 0.296 | 0.213 | 0.303 | 0.247 | 0.327 | 0.975 | 0.969 | 0.966 | 0.93 | 1.02 |
| NCI-H661 | 0.886 | 0.653 | 0.41 | 0.232 | 0.653 | 0.654 | 0.415 | 0.212 | 0.923 | 0.964 | 0.931 | 0.83 | 0.843 | 0.647 | 0.668 | 0.846 | 0.464 | 0.404 |
